According to patent US20190225650A1, “PEPTIDOMIMETIC MACROCYCLES AND USE THEREOF IN REGULATING HIF1ALPHA” (AILERON THERAPEUTICS, INC., priority 2013, published 2019):
Bridge positions count the residues as written; N and C are the ends. Square brackets hold non-standard residues; d marks the D form. Peptide text beside a SMILES is read from it. R8 = C=CCCCCCC[C@@](C)(N)C(=O)O; S5 = C=CCCC[C@](C)(N)C(=O)O; Nle = CCCC[C@H](N)C(=O)O

Tests used:
[1] = molecular target: T1, flag-tagged HIF1α (AA 786-826) / His6-tagged p300 (AA 323-423) complex (Homo sapiens, UniProt Q09472); assay: HIF1α p300 displacement assay (TR FRET, +CHAPS); format: binding; conditions: read-out: IC50 (nM) (HIF1α_p300 Displacement + CHAPS)
T1 construct: His6-tagged p300 (AA 323-423); made in house; host or cells: E. coli (pETDuet vector)
How it was run: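 In this TR-FRET displacement format, peptides compete HIF1α C-terminal transactivation domain off p300-CH. They were preincubated 1 h at room temperature with 300 nM complex in HEPES pH 7.4/NaCl buffer with 7.5 mM CHAPS and 1 mM DTT. Anti-His-D2 (4 nM) and anti-Flag-K (0.5 μM) followed for 2 h, and a one-site fit of the fluorescence ratio gave IC50.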

HRE-bla ME-180 cells [2] = assay: Reporter gene assay (HRE-bla ME-180 HIF reporter, GeneBLAzer); format: cell-based, human; conditions: for EC50: 24 hour normoxia
How it was run: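 A FRET β-lactamase readout of HIF transcription was used. After compound treatment in 0.3% DMSO/media under normoxic conditions, 20 μl of 6× LiveBLAzer-FRET B/G (CCF4-AM) substrate was added. Plates sat 3 hr at room temperature in the dark and were read at 409 Ex/460Em and 409Ex/530Em on a Synergy 2. Inhibition was compared against DMSO vehicle controls, with chetomin as positive control.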

HRE-bla ME-180 cells [3] = assay: Cell proliferation assay (viability, MTT, 1% FBS); format: cell-based, human
How it was run: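 Viable cell number was measured with the CellTiter 96 (MTT) kit after compounds were applied for a 16 h normoxic (21% O2) pretreatment, followed by further normoxic or hypoxic (1% O2) culture. Cells: 2×10^4 ME-180 per well, Opti-MEM + 1% FBS, 0.5% DMSO vehicle.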

SMILES	IC50 [1]	18 h Avg % max inhibition at top conc (HIF Rptr-24 hrs normoxia) (μM) (HRE-bla ME-180 cells [2])	EC50 (HRE-bla ME-180 cells [2])	Viability 1% FBS AVG (MTT V3-24 hr Normoxia) (μM) (HRE-bla ME-180 cells [3])
CC[C@H](C)[C@H](NC(=O)[C@H](CCCNC(=N)N)NC(=O)[C@H](CC(N)=O)NC(=O)[C@H](CC(C)C)NC(=O)[C@H](C)NC(=O)[C@H](CCSC)NC(=O)[C@]1(C)CCCC=CCCC[C@](C)(NC(=O)[C@H](CCSC)NC(=O)[C@H](CC(C)C)NC(=O)[C@@H](NC(=O)[C@H](C)NC(=O)[C@H](CCC(N)=O)NC(=O)[C@H](CC(=O)O)NC(=O)[C@@H](NC(=O)[C@H](Cc2ccccc2)NC(C)=O)[C@@H](C)CC)C(C)C)C(=O)N[C@@H](CC(C)C)C(=O)N[C@@H](C(C)C)C(=O)N[C@@H]([C@@H](C)CC)C(=O)N1)C(N)=O [SP-270] (Ac-FIDQAVLM[S5]LVI[S5]MALNRI-NH2; staple 9-13)	> 700 nM	++ (≤10 but <25: ++)	> 30 µM	++++ (≥30: ++++)
CC[C@H](C)[C@H](NC(=O)[C@H](Cc1ccccc1)NC(C)=O)C(=O)N[C@@H](CC(=O)O)C(=O)N[C@@H](CCC(=O)O)C(=O)N[C@@H](CC(N)=O)C(=O)N[C@H](C(=O)N[C@@H](CC(C)C)C(=O)N[C@@H](CCSC)C(=O)N[C@@]1(C)CCCC=CCCC[C@@](C)(C(=O)N[C@@H](CCSC)C(=O)N[C@@H](C)C(=O)N[C@@H](CC(C)C)C(N)=O)NC(=O)[C@H]([C@@H](C)CC)NC(=O)[C@H](C(C)C)NC(=O)[C@H](CC(C)C)NC1=O)C(C)C [SP-235] (Ac-FIDENVLM[S5]LVI[S5]MAL-NH2; staple 9-13)	> 700 nM	+++ (≤25 but <50: +++)	15 to 30 µM	++++ (≥30: ++++)
CCCC[C@H](NC(=O)[C@H](CCC(=O)O)NC(=O)[C@@H](NC(=O)[C@]1(C)CCCC=CCCC[C@](C)(NC(=O)[C@@H](NC(=O)[C@H](CCC(=O)O)NC(=O)[C@H](CCC(=O)O)NC(=O)[C@H](CC(=O)O)NC(=O)[C@@H](NC(=O)[C@H](CC(N)=O)NC(=O)[C@@H](NC(=O)[C@]2(C)CCCC=CCCCCCC[C@@](C)(NC(=O)[C@H](CCC(=O)O)NC(=O)CNC(=O)[C@H](CCC(N)=O)NC(=O)[C@H](CC(C)C)NC(=O)[C@H](CC(C)C)NC(C)=O)C(=O)N[C@@H](CC(C)C)C(=O)N[C@@H](CC(C)C)C(=O)N[C@@H](CCCNC(=N)N)C(=O)N[C@@H](C)C(=O)N[C@@H](CC(C)C)C(=O)N[C@@H](CC(=O)O)C(=O)N2)C(C)C)[C@@H](C)CC)C(C)C)C(=O)N[C@@H](CCCC)C(=O)N[C@@H](CO)C(=O)N[C@@H](CC(C)C)C(=O)N1)[C@@H](C)CC)C(=O)NCC(N)=O [SP-305] (Ac-LLQGE[R8]LLRALD[S5]VNIDEEV[S5][Nle]SL[S5]IE[Nle]G-NH2; staple 6-13, 21-25)	≤ 200 nM	++++ (≥50: ++++)	> 30 µM	++++ (≥30: ++++)
CCCC[C@H](NC(=O)[C@H](CCC(=O)O)NC(=O)[C@@H](NC(=O)[C@@H](NC(=O)[C@H](CC(C)C)NC(=O)[C@]1(C)CCCC=CCCC[C@](C)(NC(=O)[C@H](CCCNC(=N)N)NC(=O)[C@H](CC(=O)O)NC(=O)[C@@H](NC(=O)[C@H](Cc2ccccc2)NC(C)=O)[C@@H](C)CC)C(=O)N[C@@H](C(C)C)C(=O)N[C@@H](CC(C)C)C(=O)N[C@@H](CCCC)C(=O)N1)C(C)C)[C@@H](C)CC)C(=O)N[C@@H](C)C(=O)N[C@@H](CC(C)C)C(N)=O [SP-156] (Ac-FIDR[S5]VL[Nle][S5]LVIE[Nle]AL-NH2; staple 5-9)	200 to 400 nM	++ (≤10 but <25: ++)	> 30 µM	++++ (≥30: ++++)
